Results reported in PMC7529893, “Structural basis for substrate recognition and chemical inhibition of oncogenic MAGE ubiquitin ligases” (Nature Communications, 2020).

molecular target: T1, MAGE-A11:PCF11 interaction (GST-MAGE-A11 MHD and FAM-PCF11_4) (Homo sapiens, UniProt P43364); test: TR-FRET dose response test of compounds for disruption of MAGE-A11:PCF11 binding; conditions: Dose response TR-FRET screening of nine scaffold groups against MAGE-A11:PCF11; read-out: consensus IC50
T1 construct: GST-MAGE-A11 MHD (human MAGE-A11 MHD amino acid 218-429); made in house; host or cells: E. coli BL21(DE3)
T1 sequence (P43364 218-429): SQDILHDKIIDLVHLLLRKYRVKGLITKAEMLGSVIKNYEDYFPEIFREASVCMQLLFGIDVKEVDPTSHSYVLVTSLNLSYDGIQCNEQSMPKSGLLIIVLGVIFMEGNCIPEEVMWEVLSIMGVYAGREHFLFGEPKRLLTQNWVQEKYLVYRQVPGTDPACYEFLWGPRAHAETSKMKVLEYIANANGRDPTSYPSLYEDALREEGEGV
Description: The TR-FRET assay buffer with a formula of 50 mM Tris pH 7.5, 20 mM MgCl2, 0.1 mg/ml BSA and 1 mM DTT was freshly prepared before each experiment. All TR-FRET assays were performed in black 384-well plates with 20 µl/well assay volume in the TR-FRET assay buffer at room temperature (~25 °C). All peptides or compounds were solubilized in DMSO. To test the competitive activity of peptides or compounds against the interaction between GST-MAGE-A11 MHD and FAM-PCF11_4 peptide, 10 µl/well peptide or compound at specified concentration was dispensed into a black 384-well low volume plate, followed by 5 µl/well FAM-PCF11_4 (800 nM), 5 µl/well Tb-anti-GST (20 nM), and GST-MAGE-A11 MHD (20 nM). The assay components in each well was then mixed by shaking the plate on an IKA MTS 2/4 digital microtiter plate shaker (IKA Works; Wilmington, NC, USA) for 1 min. The plate was further centrifuged in an Eppendorf 5810 centrifuge with an A-4-62 swing-bucket rotor (Eppendorf AG, Hamburg, Germany) at 201 g for 30 s. The plate was then incubated for 90 min with a lid to avoid light exposure to the assay components. After incubation, the fluorescent emission signals at 520 nm and 490 nm channels of individual wells were measured with a PHERAstar FS plate reader (BMG Labtech; Durham, NC, USA) by using a 340 nm excitation filter, 100 µs delay time, and 200 µs integration time. The TR-FRET fluorescence emission ratio (TR-FRET signal) for each well was presented as 10,000 × 520 nm/490 nm, which was used directly for curve fitting, or further converted to %Inhibition based on the respective positive and negative controls. The graphic software GraphPad Prism 4.81 (GraphPad Software; La Jolla, CA, USA) was used to generate curves and derive IC50 values of tested peptides or compounds, if applicable.
TR-FRET screen for identifying MAGE-A11 small molecule inhibitors was performed as follows. The primary one-concentration screening and subsequent 10 or 20-concentration dose-response tests were accomplished with an automated High Throughput Screening system (HighRes Biosolutions, Beverly, MA)[30]. In the primary screening, 15 µl/well FAM-PCF11_4 (267 nM) was first dispensed with a Multidrop Combi Reagent Dispenser (Thermo Fisher Scientific, Waltham, MA) to black 384-well low-volume assay plates. The plates were spun down with a Velocity11 VSpin microplate centrifuge (Agilent Technologies, Santa Clara, CA). In total, 30 nl/well of 10 mM compound/DMSO solutions, or DMSO alone, were transferred from compound plates (the St. Jude FDA drug and bioactive library, Drug-like library and Lead-like library) or a control plate to the assay plates with a Pin Tool (V&P Scientific, San Diego, CA). The compounds were arrayed in columns 3–12 and columns 15–24 of compound plates. The controls were arrayed in columns 1, 2, 13, and 14 of a compound plate. In all, 5 µl/well Tb-anti-GST (20 nM) and GST-MAGE-A11 (20 nM) or 5 µl/well Tb-anti-GST (20 nM) alone was then dispensed to selected wells with a Multidrop Combi Reagent Dispenser. The final assay volume was 20 µl/well. The final DMSO concentration was 0.25% (v/v) (0.1% (v/v) from the FAM-PCF11_4 DMSO stock solution and 0.15% (v/v) from the compound-DMSO solution or the DMSO for the control wells). The final tested compound concentration was 15 µM. The final FAM-PCF11_4 concentration was 200 nM and the final Tb-anti-GST concentration was 5 nM. The final GST-MAGE-A11 concentration was 5 nM except for those selected positive control wells in which GST-MAGE-A11 was not presented. The plates were then shaken with a big bear shaker (Big Bear Automation, Santa Clara, California) and spun down with the Velocity11 VSpin microplate centrifuge for 20 s. The plates were then incubated at room temperature in a Liconic incubator (Liconic US, Woburn, MA) for 90 min. The TR-FRET signals for individual wells were measured with a PHERAstar FS plate reader. The %Inhibition of each tested inhibitor was calculated by using Eq. 1.

| IC50 | Structure (SMILES) |
| --- | --- |
| 17.6 µM | COc1cccc(CNCCCNc2ccnc3cc(Cc4ccc(F)cc4Cl)ccc23)c1O [SJ000311323-1] |
| 20.6 µM | Fc1ccc(Cc2ccc3c(NCCCNCc4cccc5c4OCO5)ccnc3c2)c(Cl)c1 [SJ000311324-1] |
| 67.1 µM | Clc1ccc2c(NCCCNCc3ccc4[nH]ccc4c3)ccnc2c1 [SJ000520909-2] |

Continued, molecule first:

| Structure (SMILES) | IC50 |
| --- | --- |
| COc1cccc(CNCCCNc2ccnc3cc(Cc4cc(C)cc(C)c4)ccc23)c1O [SJ000311319-1] | 23.6 µM |
| Cc1cc(C)cc(Cc2ccc3c(NCCCNCc4cccc5c4OCO5)ccnc3c2)c1 [SJ000311320-1] | 16.3 µM |
| COc1ccc(F)cc1CNCCCNc1ccnc2cc(Cc3cc(C)cc(C)c3)ccc12 [SJ000311321-1] | 9.04 µM |
| COc1ccc(F)cc1CNCCCNc1ccnc2cc(Cc3ccc(F)cc3Cl)ccc12 [SJ000311325-1] | 17.6 µM |
| O=C1C(Cl)=C(NCCN2CCOCC2)C(=O)c2ncccc21 [SJ000312204-6] | 2.25 µM |
| Cc1ccc(S(=O)(=O)c2nc(-c3ccccc3C)oc2N2CC(C)OC(C)C2)cc1 (centres unmarked) [SJ000329041-1] | 11.8 µM |
| Cc1ccc(S(=O)(=O)c2nc(-c3ccccc3Cl)oc2N2CC(C)OC(C)C2)cc1 (centres unmarked) [SJ000329066-1] | 13 µM |
| CC1CN(c2oc(-c3ccccc3F)nc2S(=O)(=O)c2ccc(F)cc2)CC(C)O1 (centres unmarked) [SJ000329067-1] | 27.3 µM |
| O=C1OCC(c2ccc(OC(F)F)cc2)=C1c1ccc([N+](=O)[O-])cc1 [SJ000368145-1] | 40.8 µM |
| CCCCCn1c(-c2ccc(F)c(Br)c2)nc2c1c(=O)[nH]c(=O)n2CCCC [SJ000378900-1] | 2.64 µM |
| C=C(C)CSc1nc2cc(-c3ccccc3)sc2c(=O)n1CCN1CCOCC1 [SJ000456069-1] | 0.861 µM |
| Cc1cc(C)c(CNCCCNc2ccnc3cc(Cl)ccc23)c(C)c1 [SJ000520911-2] | 68.1 µM |

same assay, conditions: Supplementary Data 3, 59 quinoline compounds; read-out: TR-FRET IC50

| IC50 | Structure (SMILES) |
| --- | --- |
| > 70 µM | Oc1c(F)cc(F)cc1CN(CCCCNc1ccnc2cc(Cl)ccc12)Cc1ccccc1 [SJ000357506-2, Oc1c(F)cc(F)cc1CN(CCCCNc2ccnc3cc(Cl)ccc23)Cc4ccccc4] |
| > 70 µM | CC(C)(C)CCN(CCCCNc1ccnc2cc(Cl)ccc12)Cc1ccccc1 [SJ000357537-2, CC(C)(C)CCN(CCCCNc1ccnc2cc(Cl)ccc12)Cc3ccccc3] |
| > 70 µM | Cc1cc(C)c(CN(CCCNc2ccnc3cc(Cl)ccc23)Cc2ccccc2)c(C)c1 [SJ000361169-2, Cc1cc(C)c(CN(CCCNc2ccnc3cc(Cl)ccc23)Cc4ccccc4)c(C)c1] |
| > 70 µM | Clc1ccc2c(NCCCCN(Cc3ccccc3)CC3CCCCC3)ccnc2c1 [SJ000361194-2, Clc1ccc2c(NCCCCN(CC3CCCCC3)Cc4ccccc4)ccnc2c1] |
| > 70 µM | Clc1ccc(CN(CCCCNc2ccnc3cc(Cl)ccc23)Cc2ccccc2)c(Cl)c1 [SJ000361207-2, Clc1ccc(CN(CCCCNc2ccnc3cc(Cl)ccc23)Cc4ccccc4)c(Cl)c1] |
| > 70 µM | CCC(C)CN(CCCCNc1ccnc2cc(Cl)ccc12)Cc1ccccc1 (centres unmarked) [SJ000361208-2, CCC(C)CN(CCCCNc1ccnc2cc(Cl)ccc12)Cc3ccccc3] |
| > 70 µM | Cc1ccc(C)c(CN(CCCCNc2ccnc3cc(Cl)ccc23)Cc2ccccc2)c1 [SJ000361209-2, Cc1ccc(C)c(CN(CCCCNc2ccnc3cc(Cl)ccc23)Cc4ccccc4)c1] |
| 41.7 µM | Clc1ccc2c(NCCCN(Cc3ccccc3)Cc3ccc4[nH]ccc4c3)ccnc2c1 [SJ000520430-1, Clc1ccc2c(NCCCN(Cc3ccccc3)Cc4ccc5[nH]ccc5c4)ccnc2c1] |
| > 70 µM | Clc1ccc2c(NCCCN(Cc3ccccc3)Cc3c[nH]c4ccccc34)ccnc2c1 [SJ000520433-1, Clc1ccc2c(NCCCN(Cc3ccccc3)Cc4c[nH]c5ccccc45)ccnc2c1] |
| 23.4 µM | Clc1ccc2c(NCCCCN(Cc3ccccc3)Cc3ccc4[nH]ccc4c3)ccnc2c1 [SJ000520434-1, Clc1ccc2c(NCCCCN(Cc3ccccc3)Cc4ccc5[nH]ccc5c4)ccnc2c1] |
| > 70 µM | COc1ccc(C(F)(F)F)cc1CN(CCCCNc1ccnc2cc(Cl)ccc12)Cc1ccccc1 [SJ000520444-1, COc1ccc(cc1CN(CCCCNc2ccnc3cc(Cl)ccc23)Cc4ccccc4)C(F)(F)F] |
| > 70 µM | Clc1ccc2c(NCCCCN(Cc3ccccc3)Cc3csc4ccccc34)ccnc2c1 [SJ000520446-1, Clc1ccc2c(NCCCCN(Cc3ccccc3)Cc4csc5ccccc45)ccnc2c1] |
| > 70 µM | Cc1ccc(F)cc1CN(CCCCNc1ccnc2cc(Cl)ccc12)Cc1ccccc1 [SJ000520449-1, Cc1ccc(F)cc1CN(CCCCNc2ccnc3cc(Cl)ccc23)Cc4ccccc4] |
| > 70 µM | FC(F)(F)Oc1cccc(CN(CCCCNc2ccnc3cc(Cl)ccc23)Cc2ccccc2)c1 [SJ000520457-1, FC(F)(F)Oc1cccc(CN(CCCCNc2ccnc3cc(Cl)ccc23)Cc4ccccc4)c1] |
| > 70 µM | FC(F)(F)Oc1ccccc1CN(CCCCNc1ccnc2cc(Cl)ccc12)Cc1ccccc1 [SJ000520459-1, FC(F)(F)Oc1ccccc1CN(CCCCNc2ccnc3cc(Cl)ccc23)Cc4ccccc4] |

More lines, now with the values behind:

| Structure (SMILES) | IC50 |
| --- | --- |
| FC(F)(F)c1ccc2c(NCCCNCc3ccc[nH]3)ccnc2c1 [SJ000361105-1, FC(F)(F)c1ccc2c(NCCCNCc3ccc[nH]3)ccnc2c1] | 33 µM |
| CCCCCCNCCCNc1ccnc2cc(C(F)(F)F)ccc12 [SJ000361124-1] | 57.6 µM |
| CCCN(CCCNc1ccnc2cc(C(F)(F)F)ccc12)Cc1ccc[nH]1 [SJ000361255-1, CCCN(CCCNc1ccnc2cc(ccc12)C(F)(F)F)Cc3ccc[nH]3] | > 70 µM |
| CCCN(CCCNc1ccnc2cc(C(F)(F)F)ccc12)CC1CC1 [SJ000361266-1, CCCN(CCCNc1ccnc2cc(ccc12)C(F)(F)F)CC3CC3] | > 70 µM |
| CCCN(CCCNc1ccnc2cc(C(F)(F)F)ccc12)CC1CCCCC1 [SJ000361268-1, CCCN(CCCNc1ccnc2cc(ccc12)C(F)(F)F)CC3CCCCC3] | > 70 µM |
| CCCN(CCCNc1ccnc2cc(C(F)(F)F)ccc12)CC(CC)CC [SJ000361269-1, CCCN(CCCNc1ccnc2cc(ccc12)C(F)(F)F)CC(CC)CC] | > 70 µM |
| CCCCCN(CCC)CCCNc1ccnc2cc(C(F)(F)F)ccc12 [SJ000361271-1, CCCCCN(CCC)CCCNc1ccnc2cc(ccc12)C(F)(F)F] | > 70 µM |
| FC(F)(F)Oc1ccc(CN(CCCCNc2ccnc3cc(Cl)ccc23)Cc2ccccc2)cc1 [SJ000520451-1, FC(F)(F)Oc1ccc(CN(CCCCNc2ccnc3cc(Cl)ccc23)Cc4ccccc4)cc1] | > 70 µM |
| CCCN(CCCNc1ccnc2cc(C(F)(F)F)ccc12)CCC(C)(C)C [SJ000520476-1, CCCN(CCCNc1ccnc2cc(ccc12)C(F)(F)F)CCC(C)(C)C] | > 70 µM |
| CCCN(CCCNc1ccnc2cc(C(F)(F)F)ccc12)Cc1ccc(CC)cc1 [SJ000521009-2, CCCN(CCCNc1ccnc2cc(ccc12)C(F)(F)F)Cc3ccc(CC)cc3] | > 70 µM |
| COC(=O)CCCCCNCCCNc1ccnc2cc(Cl)ccc12 [SJ000521021-1] | 31.4 µM |
